The source of these data is ChEMBL document CHEMBL1135897, “Design and synthesis of a novel L-dopa-entacapone codrug” (J Med Chem, 2002).

By half-life is commonly meant the time in which the quantity being followed falls by half. Read a low half-life as fast loss.

Data set [1] in a line: The half-life period, to be stable in the stomach and liver at pH 5.0, was determined. Format: ADME, tissue-based.
Data set [2] can be described thus: Half-life period for the hydrolysis to entacopone and […] was determined in a liver homogenate at pH 7.4. The class given is ADME, tissue-based.

Turning to `CCN(CC)C(=O)/C(C#N)=C/c1cc(OC(=O)N[C@@H](Cc2ccc(O)c(O)c2)C(=O)OC)c(O)c([N+](=O)[O-])c1`, the results for the half-life in data set [1] and in data set [2] were 66 min and 7 min, respectively.
